How the values were obtained:
Format in all cases: in vivo
Codling Moth larvae = assay: Repellency as feeding deterrence and mortality in Codling Moth larvae on treated media; conditions: compound at 3.5% in a 57% Ethanol:43% water solution; for Repellency at 24 hours: first instar larva, control 8%
Procedure: Another test was designed to measure the repellency as feeding deterrence in Codling Moth larvae. The treatment was applied to the surface of a proprietary laboratory media in a tray with wells for each compound. The media was allowed to dry for 30-60 minutes so that larvae were not exposed to it as a liquid. One first instar codling moth larva was then placed on the treated media. The cover film was placed on the tray to prevent escapes. Ten additional replicates treated with a 57% ethanol solution were prepared to serve as controls. […] After the 24 hour reading, the larvae were extracted from the media to record any mortality.
Mortality observations were also made for the above protocol. The control was the 57% ethanol:43% water solution.

Aphis gossypii = assay: Melon aphid repellency on leaf choice assays; conditions: 3% compound in a Triton X:Water solution; n=100; control 50/50
Description: Melon Aphid Repellency on Leaf Choice Assays Aphis gossypii are maintained on squash plants. Individual aphids (n=100) are given the choice between leaves with and without repellent treatments. A separate group of aphids are given a choice between untreated vs. untreated leaves as a control. The number of aphids choosing each leaf is counted both choice tests. The number of aphids choosing each treatment is compared to the control to determine the repellent effect.

psyllids = assay: Psyllid repellency on potato choice assays; conditions: 3% compound; potato plants; 100 psyllids per cage; control 50/50
Description: Psyllid Repellency on Potato Choice Assays
(§1) Potato plants are sprayed with either a 3% solution of repellent chemical in a 5%:95% ETOH:Water or only 5%:95% ETOH:Water as a control. Two plants are placed in a screen cage, either a treatment vs control tree or a control vs control tree, 100 psyllids are released into each cage. The number of psyllids choosing each leaf is counted for both choice tests. The number of psyllids choosing each treatment is compared to the control to determine if there is a repellent effect.

sharpshooters = assay: Leafhopper repellency on citrus choice assays; conditions: 3% compound; citrus seedlings; 100 sharpshooters per cage; control 50/50
Description: as §1, with “Leafhopper Repellency on Citrus Choice Assays Citrus seedlings” for “Potato plants”, “seedlings” for “plants”, “tree.” for “tree,”, “sharpshooters” for “psyllids”

[1] = system: Euschistus heros-Neotropical Brown Stink Bugs; assay: Stink bug feeding damage on soybean pods; conditions: 3% compound, soybean plants at R6 stage, 48 hours
Procedure: To compare the feeding/resting preference of stink bug adults for different plant parts, 10 pots with soybean plants at the R6 (pod-filling) stage of development are used. 5 pots of soybeans are sprayed with 3% of treatment in a 2% Triton X:water solution and 5 pots of soybean are treated with 2% Triton X:water solution as controls. Thirty stink bugs are placed individually in each cage and allowed to feed for 48 hours. Insects are removed and plant parts are collected for visual analysis of damage. Feeding damage on the pods is counted for both treatments. The selective antifeeding rate (%) formula is [(C−T)/(C+T)]×100, and the non-selective antifeeding rate (%) formula is [(C−T)/C)]×100, where C and T are the numbers of feeding damages on the control and treated plant pods, respectively.

[2] = system: Leptinotarsa decemlineata-Colorado Potatoe Beetles; assay: Choice feeding assay on potato leaf disks; conditions: 3% compound, larvae, 24 h
Procedure: For choice feeding assays, 3% alcohol solutions of the tested compounds are prepared. Disks (4.0 cm in diameter) are cut from potato leaves and are dipped in the test solutions or alcohol alone as a control. After the complete evaporation of the solvent, the disks are offered to 10 larvae. Control and treated disks are placed at alternate corners in Petri dishes (150 by 20 mm) lined with moistened filter paper (choice test). All dishes are placed in an incubator. Four replicates and 40 larva are used for each chemical. In each replicate, the insects are allowed to feed ad libitum for 24 h at 24 C under a 16:8 (L:D) photoperiod. After 24 h, the remaining uneaten area of each potato leaf disk is measured using a scanner and software. The selective antifeeding rate (%) formula is [(C−T)/(C+T)]×100, and the non-selective antifeeding rate (%) formula is [(C−T)/C)]×100, where C and T are the areas consumed by the control and treated leaf disks, respectively.

Popillia japonica = assay: Japanese beetle feeding damage on basil; conditions: 3% compound; basil leaf disks; adult beetle; 24 h
Procedure: Japanese Beetle Feeding Damage on Basil For choice feeding assays, 3% alcohol solutions of the tested compounds are prepared. Disks (4.0 cm in diameter) are cut from basil leaves and are dipped in the test solutions or alcohol alone as a control. After the complete evaporation of the solvent, the disks are offered to 1 adult beetle. All dishes are placed in an incubator. Four replicates are used for each chemical. After 24 h, the remaining uneaten area of each basil leaf disk is measured using a scanner and software. The selective antifeeding rate (%) formula is [(C−T)/(C+T)]×100, and the non-selective antifeeding rate (%) formula is [(C−T)/C)]×100, where C and T are the areas consumed by the control and treated leaf disks, respectively.

Dermestid spp. = assay: Dermestid beetle feeding damage on silk fabric; conditions: 3% compound; undyed silk disks; late instar larvae; 1 week
Procedure: Dermestid Beetle Feeding Damage on Silk Fabric
For feeding assays, 3% alcohol solutions of the tested compounds are prepared. Disks (4.0 cm in diameter) of undyed silk fabric are dipped in the test solutions or alcohol alone as a control. After the complete evaporation of the solvent, the disks are offered to 10 late instar larvae. All dishes are placed in an incubator. Four replicates are used for each chemical. After 1 week, the remaining uneaten area of each silk disk is measured using a scanner and software. The selective antifeeding rate (%) formula is [(C−T)/(C+T)]×100, and the non-selective antifeeding rate (%) formula is [(C−T)/C)]×100, where C and T are the areas consumed by the control and treated silk disks, respectively.

Tineola spp. = assay: Clothes moth feeding damage on silk fabric, choice test; conditions: 3% compound; silk disks; late instar larvae; 24 hours; control 50/50
Procedure: For feeding assays, 3% alcohol solutions of the tested compounds are prepared. Disks (2.0 cm in diameter) of undyed silk fabric are dipped in the test solutions or alcohol alone as a control. After the complete evaporation of the solvent, the disks are presented in a choice test to 10 late instar Tineola spp. larvae. All dishes are placed in an incubator in the dark. Four replicates are used for each chemical. After 24 hours, the number of individuals choosing to feed on each disk are counted.

| Compound | Increased Mortality over Control Mortality at 24 hours (Codling Moth larvae) [%] | Repellency at 24 hours (Codling Moth larvae) [%] | Number of Aphids Choosing each Treatment: Treated (Aphis gossypii) | Number of Aphids Choosing each Treatment: Untreated (Aphis gossypii) | Number of Psyllids Choosing each Treatment: Treated (psyllids) | Number of Psyllids Choosing each Treatment: Untreated (psyllids) | Number of Psyllids Choosing each Treatment: Treated (sharpshooters) | Number of Psyllids Choosing each Treatment: Untreated (sharpshooters) | % Antifeedent Activity [1] [%] | % Repellency [2] [%] | % Repellency (Popillia japonica) [%] | % Repellency (Dermestid spp.) [%] | Individuals choosing to feed on each disk: Treated (Tineola spp.) | Individuals choosing to feed on each disk: Untreated (Tineola spp.) |
| --- | --- | --- | --- | --- | --- | --- | --- | --- | --- | --- | --- | --- | --- | --- |
| CC/C(C)=C/CC/C(C)=C/CC1CCCC1=O (stereo not shown) [Methyl Apritone] | 95 | 100 | 30 | 70 | 30 | 70 | 30 | 70 | 60 | 15 | 15 | 15 | 20 | 80 |
| CCCCCC1C(=O)CCC1CC(=O)OCCC (stereo not shown) [Propyl Dihydrojasmonate] | 18 | 59 | 30 | 70 | 30 | 70 | 30 | 70 | 100 | 15 | 15 | 15 | 20 | 80 |
